In PubChem BioAssay AID272 (DTP/NCI, 2004) one finds T/C data, which are given here for eleven compounds.

The test system of the assay is Lewis lung carcinoma i.m., BDF1 mice, T/C %. The experiment in a line: NCI In Vivo Anticancer Drug Screen. Data for tumor model Lewis Lung Carcinoma (intramuscular) in B6D2F1 (BDF1) mice. A digest of the protocol:
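Compound given to mice with transplantable tumours; survival or tumour size compared against the vehicle control group, reported as T divided by C.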

[1] abbreviates: endpoint: mean tumor weight (est.), dose: 12.5 mg/kg/injection, schedule: Q01DX011 (ip), vehicle: saline with Tween-80, higher = larger tumour.
The mark [2] stands for this setting: endpoint: mean tumor weight (est.), dose: 25.0 mg/kg/injection, schedule: Q01DX011 (ip), vehicle: saline with Tween-80, higher = larger tumour.
Setting [3] is: endpoint: mean tumor weight (est.), dose: 50.0 mg/kg/injection, schedule: Q01DX011 (ip), vehicle: saline with Tween-80, higher = larger tumour.
The mark [4] stands for this setting: endpoint: mean tumor weight (est.), dose: 100.0 mg/kg/injection, schedule: Q01DX011 (ip), vehicle: saline with Tween-80, higher = larger tumour.
Where [5] appears, read: endpoint: median survival time, dose: 12.5 mg/kg/injection, schedule: Q01DX011 (ip), vehicle: saline with Tween-80, higher = longer survival.
The mark [6] stands for this setting: endpoint: median survival time, dose: 50.0 mg/kg/injection, schedule: Q01DX011 (ip), vehicle: saline with Tween-80, higher = longer survival.

The structures appear in SMILES notation. Values joined by “and” are separate entries in the source; they are usually repeats but may differ in a detail not shown here. Identical values can stand only once. Results filed as inconclusive are left out.

With `O=C(O)CCCc1ccc(N(CCCl)CCCl)cc1`, the T/C was 92 % of control (endpoint: mean tumor weight, dose: 2.5 mg/kg/injection, schedule: Q01DX011 (ip), vehicle: carboxymethylcellulose (CMC), higher = larger tumour); 56 % of control (endpoint: mean tumor weight, dose: 5.0 mg/kg/injection, schedule: Q01DX011 (ip), vehicle: carboxymethylcellulose (CMC), higher = larger tumour); 56 % of control (endpoint: mean tumor weight, dose: 10.0 mg/kg/injection, schedule: Q01DX011 (ip), vehicle: carboxymethylcellulose (CMC), higher = larger tumour); 98 % of control and 101 % of control (endpoint: median survival time, dose: 0.5 mg/kg/injection, schedule: Q01DX011 (ip), vehicle: saline, higher = longer survival); 91 % of control and 92 % of control (endpoint: median survival time, dose: 1.0 mg/kg/injection, schedule: Q01DX011 (ip), vehicle: saline, higher = longer survival); 92 % of control and 110 % of control (endpoint: median survival time, dose: 2.0 mg/kg/injection, schedule: Q01DX011 (ip), vehicle: saline, higher = longer survival). The T/C runs as follows: (endpoint: median survival time, dose: 2.5 mg/kg/injection, schedule: Q01DX011 (ip), vehicle: carboxymethylcellulose (CMC), higher = longer survival) 95 % of control; (endpoint: median survival time, dose: 4.0 mg/kg/injection, schedule: Q01DX011 (ip), vehicle: saline, higher = longer survival) 97 % of control and 118 % of control; (endpoint: median survival time, dose: 5.0 mg/kg/injection, schedule: Q01DX011 (ip), vehicle: carboxymethylcellulose (CMC), higher = longer survival) 122 % of control; (endpoint: median survival time, dose: 8.0 mg/kg/injection, schedule: Q01DX011 (ip), vehicle: saline, higher = longer survival) 88 % of control and 105 % of control; (endpoint: median survival time, dose: 10.0 mg/kg/injection, schedule: Q01DX011 (ip), vehicle: carboxymethylcellulose (CMC), higher = longer survival) 108 % of control.
With `CCCCNC(C)(C)COC(=O)/C=C/c1ccc(OCCCC)cc1`, the T/C under setting [1] was 89 % of control; the T/C under setting [2] is 82 % of control; the T/C under setting [3] is 67 % of control; the T/C under setting [4] is 59 % of control; the T/C under setting [5] is 88 % of control; the T/C (endpoint: median survival time, dose: 25.0 mg/kg/injection, schedule: Q01DX011 (ip), vehicle: saline with Tween-80, higher = longer survival) was 110 % of control. Moreover, the T/C is, setting by setting: under setting [6], 104 % of control; (endpoint: median survival time, dose: 100.0 mg/kg/injection, schedule: Q01DX011 (ip), vehicle: saline with Tween-80, higher = longer survival) 98 % of control.
In the case of `CCC[CH2][Sn]1([CH2]CCC)[O]OC(c2ccccc2)[O]1` (centres undefined), the T/C (endpoint: median survival time, dose: 0.5 mg/kg/injection, schedule: Q01DX009 (ip), vehicle: saline, higher = longer survival) is 107 % of control; the T/C (endpoint: median survival time, dose: 1.0 mg/kg/injection, schedule: Q01DX009 (ip), vehicle: saline, higher = longer survival) was 114 % of control; the T/C (endpoint: median survival time, dose: 2.0 mg/kg/injection, schedule: Q01DX009 (ip), vehicle: saline, higher = longer survival) is 106 % of control; the T/C (endpoint: median survival time, dose: 4.0 mg/kg/injection, schedule: Q01DX009 (ip), vehicle: saline, higher = longer survival) was 113 % of control.
Regarding `OCCNC1c2ccccc2-c2ccccc21`, the T/C was 90 % of control under setting [2], 91 % of control under setting [3], 67 % of control under setting [4] and 112 % of control under setting [6].
As to `CCCCCCCCCCCCCCCC(=O)OCC1OC(n2ccc(N)nc2=O)C(O)C1O` (centres undefined), the T/C (endpoint: mean tumor weight (est.), dose: 7.5 mg/kg/injection, schedule: Q01DX009 (ip), vehicle: saline, higher = larger tumour) is 76 % of control; the T/C (endpoint: mean tumor weight (est.), dose: 15.0 mg/kg/injection, schedule: Q01DX009 (ip), vehicle: saline, higher = larger tumour) was 39 % of control; the T/C (endpoint: mean tumor weight (est.), dose: 25.0 mg/kg/injection, schedule: Q04DX003 (ip), vehicle: saline, higher = larger tumour) was 67 % of control; the T/C (endpoint: mean tumor weight (est.), dose: 37.5 mg/kg/injection, schedule: Q01DX001 (ip), vehicle: saline, higher = larger tumour) is 45 % of control; the T/C (endpoint: mean tumor weight (est.), dose: 50.0 mg/kg/injection, schedule: Q04DX003 (ip), vehicle: saline, higher = larger tumour) is 19 % of control; the T/C (endpoint: mean tumor weight (est.), dose: 75.0 mg/kg/injection, schedule: Q01DX001 (ip), vehicle: saline, higher = larger tumour) was 19 % of control. The T/C by setting is: (endpoint: mean tumor weight (est.), dose: 150.0 mg/kg/injection, schedule: Q01DX001 (ip), vehicle: saline, higher = larger tumour) 46 % of control; (endpoint: median survival time, dose: 37.5 mg/kg/injection, schedule: Q01DX001 (ip), vehicle: saline, higher = longer survival) 93 % of control; (endpoint: median survival time, dose: 150.0 mg/kg/injection, schedule: Q01DX001 (ip), vehicle: saline, higher = longer survival) 113 % of control.
In the case of `NCC(=O)c1ccc(O)c(O)c1`, the T/C was 76 % of control (endpoint: mean tumor weight (est.), dose: 100.0 mg/kg/injection, schedule: Q01DX011 (ip), vehicle: saline, higher = larger tumour); 58 % of control (endpoint: mean tumor weight (est.), dose: 200.0 mg/kg/injection, schedule: Q01DX011 (ip), vehicle: saline, higher = larger tumour); 96 % of control (endpoint: median survival time, dose: 200.0 mg/kg/injection, schedule: Q01DX011 (ip), vehicle: saline, higher = longer survival).
As to `O=C1NC(c2cccc3ccccc23)Nc2ccccc21` (centres undefined), the T/C was 86 % of control (endpoint: mean tumor weight, dose: 15.6 mg/kg/injection, schedule: Q01DX011 (ip), vehicle: saline with Tween-80, higher = larger tumour); 80 % of control (endpoint: mean tumor weight, dose: 31.2 mg/kg/injection, schedule: Q01DX011 (ip), vehicle: saline with Tween-80, higher = larger tumour); 90 % of control (endpoint: mean tumor weight, dose: 62.5 mg/kg/injection, schedule: Q01DX011 (ip), vehicle: saline with Tween-80, higher = larger tumour); 67 % of control (endpoint: mean tumor weight, dose: 125.0 mg/kg/injection, schedule: Q01DX011 (ip), vehicle: saline with Tween-80, higher = larger tumour); 102 % of control (endpoint: median survival time, dose: 15.6 mg/kg/injection, schedule: Q01DX011 (ip), vehicle: saline, higher = longer survival); 119 % of control (endpoint: median survival time, dose: 31.2 mg/kg/injection, schedule: Q01DX011 (ip), vehicle: saline, higher = longer survival). Further, the T/C is 114 % of control (endpoint: median survival time, dose: 62.5 mg/kg/injection, schedule: Q01DX011 (ip), vehicle: saline, higher = longer survival) and 114 % of control (endpoint: median survival time, dose: 125.0 mg/kg/injection, schedule: Q01DX011 (ip), vehicle: saline, higher = longer survival).
As to `CC(=O)c1ccc(Oc2ccc(/C(C)=N\N=C(N)N)cc2)cc1`, the T/C is, setting by setting: under setting [1], 66 % of control; under setting [2], 74 % of control; under setting [5], 91 % of control.
As for `C[C@H]1CN1C1=CC(=O)C(N2C[C@@H]2C)=CC1=O`, the T/C reads like this: (endpoint: median survival time, dose: 0.5 mg/kg/injection, schedule: Q01DX011 (ip), vehicle: saline with Tween-80, higher = longer survival) 102 % of control; (endpoint: median survival time, dose: 1.0 mg/kg/injection, schedule: Q01DX011 (ip), vehicle: saline with Tween-80, higher = longer survival) 113 % of control; (endpoint: median survival time, dose: 4.0 mg/kg/injection, schedule: Q01DX011 (ip), vehicle: saline with Tween-80, higher = longer survival) 108 % of control.
With `O=C1CN=C(c2ccc[nH]2)c2cc(Cl)ccc2N1`, the T/C is, setting by setting: (endpoint: mean tumor weight, dose: 6.25 mg/kg/injection, schedule: Q01DX011 (ip), vehicle: Klucel (hydroxypropylcellulose) (HPC), higher = larger tumour) 74 % of control; (endpoint: mean tumor weight, dose: 12.5 mg/kg/injection, schedule: Q01DX011 (ip), vehicle: Klucel (hydroxypropylcellulose) (HPC), higher = larger tumour) 111 % of control; (endpoint: mean tumor weight, dose: 25.0 mg/kg/injection, schedule: Q01DX011 (ip), vehicle: Klucel (hydroxypropylcellulose) (HPC), higher = larger tumour) 82 % of control; (endpoint: mean tumor weight, dose: 50.0 mg/kg/injection, schedule: Q01DX011 (ip), vehicle: Klucel (hydroxypropylcellulose) (HPC), higher = larger tumour) 96 % of control; (endpoint: mean tumor weight, dose: 100.0 mg/kg/injection, schedule: Q01DX011 (ip), vehicle: Klucel (hydroxypropylcellulose) (HPC), higher = larger tumour) 95 % of control; (endpoint: median survival time, dose: 6.25 mg/kg/injection, schedule: Q01DX011 (ip), vehicle: Klucel (hydroxypropylcellulose) (HPC), higher = longer survival) 97 % of control. Moreover, the T/C runs as follows: (endpoint: median survival time, dose: 12.5 mg/kg/injection, schedule: Q01DX011 (ip), vehicle: Klucel (hydroxypropylcellulose) (HPC), higher = longer survival) 100 % of control; (endpoint: median survival time, dose: 25.0 mg/kg/injection, schedule: Q01DX011 (ip), vehicle: Klucel (hydroxypropylcellulose) (HPC), higher = longer survival) 88 % of control and 111 % of control; (endpoint: median survival time, dose: 50.0 mg/kg/injection, schedule: Q01DX011 (ip), vehicle: Klucel (hydroxypropylcellulose) (HPC), higher = longer survival) 102 % of control; (endpoint: median survival time, dose: 100.0 mg/kg/injection, schedule: Q01DX011 (ip), vehicle: Klucel (hydroxypropylcellulose) (HPC), higher = longer survival) 100 % of control.
`O=C(O)c1[nH]c(=O)[nH]c(=O)c1F`: the T/C is, setting by setting: (endpoint: median survival time, dose: 0.19 mg/kg/injection, schedule: Q01DX011 (ip), vehicle: sodium bicarbonate, higher = longer survival) 100 % of control; (endpoint: median survival time, dose: 0.38 mg/kg/injection, schedule: Q01DX011 (ip), vehicle: sodium bicarbonate, higher = longer survival) 111 % of control; (endpoint: median survival time, dose: 0.75 mg/kg/injection, schedule: Q01DX011 (ip), vehicle: sodium bicarbonate, higher = longer survival) 92 % of control; (endpoint: median survival time, dose: 1.5 mg/kg/injection, schedule: Q01DX011 (ip), vehicle: sodium bicarbonate, higher = longer survival) 100 % of control; (endpoint: median survival time, dose: 2.5 mg/kg/injection, schedule: Q01DX011 (ip), vehicle: other, higher = longer survival) 105 % of control; (endpoint: median survival time, dose: 3.12 mg/kg/injection, schedule: Q01DX011 (ip), vehicle: sodium bicarbonate, higher = longer survival) 101 % of control. Also, the T/C is, setting by setting: (endpoint: median tumor weight (est.), dose: 0.19 mg/kg/injection, schedule: Q01DX011 (ip), vehicle: sodium bicarbonate, higher = larger tumour) 96 % of control; (endpoint: median tumor weight (est.), dose: 0.38 mg/kg/injection, schedule: Q01DX011 (ip), vehicle: sodium bicarbonate, higher = larger tumour) 85 % of control; (endpoint: median tumor weight (est.), dose: 0.75 mg/kg/injection, schedule: Q01DX011 (ip), vehicle: sodium bicarbonate, higher = larger tumour) 101 % of control; (endpoint: median tumor weight (est.), dose: 1.5 mg/kg/injection, schedule: Q01DX011 (ip), vehicle: sodium bicarbonate, higher = larger tumour) 108 % of control; (endpoint: median tumor weight (est.), dose: 3.12 mg/kg/injection, schedule: Q01DX011 (ip), vehicle: sodium bicarbonate, higher = larger tumour) 81 % of control.
